Measurements from ChEMBL document CHEMBL1139650, “In silico fragment-based discovery of DPP-IV S1 pocket binders” (Bioorg Med Chem Lett, 2006).

Biological target: Dipeptidyl peptidase 4 (Homo sapiens, UniProt P27487)
Experiment: Inhibition of DPP4

Chain of Dipeptidyl peptidase 4 (P27487 whole entry): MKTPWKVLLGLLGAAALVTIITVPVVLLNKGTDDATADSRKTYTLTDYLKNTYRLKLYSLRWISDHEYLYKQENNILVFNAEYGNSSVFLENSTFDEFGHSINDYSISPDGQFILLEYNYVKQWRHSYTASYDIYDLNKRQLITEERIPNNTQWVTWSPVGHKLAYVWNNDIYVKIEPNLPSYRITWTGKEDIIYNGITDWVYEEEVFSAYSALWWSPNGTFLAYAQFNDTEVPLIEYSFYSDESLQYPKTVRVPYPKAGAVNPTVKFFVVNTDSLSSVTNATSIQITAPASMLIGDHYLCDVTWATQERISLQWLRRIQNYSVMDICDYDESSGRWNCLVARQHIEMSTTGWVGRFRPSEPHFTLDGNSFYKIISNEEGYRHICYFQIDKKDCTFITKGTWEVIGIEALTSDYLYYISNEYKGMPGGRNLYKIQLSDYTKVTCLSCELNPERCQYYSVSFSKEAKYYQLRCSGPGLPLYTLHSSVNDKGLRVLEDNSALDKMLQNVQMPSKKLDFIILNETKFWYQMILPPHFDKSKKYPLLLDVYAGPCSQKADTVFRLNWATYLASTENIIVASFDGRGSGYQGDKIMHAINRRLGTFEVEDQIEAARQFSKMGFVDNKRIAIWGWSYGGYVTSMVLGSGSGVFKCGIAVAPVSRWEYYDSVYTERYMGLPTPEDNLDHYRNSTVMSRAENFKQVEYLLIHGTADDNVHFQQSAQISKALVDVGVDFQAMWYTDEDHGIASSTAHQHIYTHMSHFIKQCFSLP

Compound	IC50 [µM]
N[C@H](c1ccccc1)[C@@H](N)c1ccccc1	75
N[C@H](c1ccccc1)[C@H](N)c1ccccc1	45
